The source of these data is patent publication US20080003127A1, “Non-Ferrous Metal Cover Gases” (Honeywell International Inc., priority 2006, published 2008).

The subject of data set [1] is test subject (e.g. mice). The following applies: single 4-hour exposure; comparison compound; cited from earlier work.
The conditions of data set [2]: cardiac sensitization tests; comparison compound; cited from earlier work.
Data set [3] can be described thus: Boiling point. The following applies: for normal boiling point: trans- vs cis-isomer. In kind it is physicochemical. Here is the method:
In addition, preferred cover gas compositions of the present invention comprise […] compounds wherein each compound present in more than an insubstantial amount has a boiling point of less than about 25° C., and even more preferably less than about 0° C. Cover gases that have boiling points close to or above room temperature (i.e. which are liquids at room temperature) typically require additional metering equipment to disperse the cover gas material in a controlled fashion onto the surface of the molten metal.

Data set [4] is described as follows: Mg cover gas test: magnesium pieces in quartz tube, oven heated to about 700° C. under cover gas flow, visual inspection. Conditions: for relative performance as cover gas: at about 0.5% by volume; for performance as cover gas: concentrations at or above about 1.5% by volume. On the procedure:
A quartz tube having a well was equipped with a metered source of cover gas and a thermocouple which was placed in the well. The well was filled with about 0.2 to 0.3 g of solid magnesium pieces. The cover gas was a mixture of air (a carrier gas) and trans-HFO-1234ze. […]
The tube containing the magnesium was placed in an oven. A flow of cover gas through the tube and over the well containing the magnesium was then established at about 1 liter/minute. The oven was then heated to about 700° C. The flow of cover gas proceeded until a surface film was formed on the magnesium or the magnesium ignited.
After the test was complete, the magnesium was removed from the oven and visually inspected to determine the quality of the cover gas.
The experiments of Examples 1-5 were repeated, except that the cover gas contained […] SF6 or HFC-134a.

Data set [5] is described as follows: Toxicity, stated in words (no method given). The following applies: comparison in words, found by applicants.
Data set [6] relates to test subject (e.g. mice). Nature of the data set: 4-hour LC-50 (concentration in air that kills 50% of test subjects, single exposure). In kind it is in vivo. Conditions: single 4-hour exposure. Here is the method: Preferably, fluoroolefins used in the present compositions have low or no toxicity. In this regard, it is preferred that fluoroolefin components that a present in the compositions in more than an insubstantial amount have a LC-50 value of at least about 100,000 ppm, and more preferably at least about 200,000 ppm. As used herein, the term “LC-50 value” means the concentration of the fluoroolefin in air that will kill 50% of test subject (e.g. mice) when administered as a single exposure (e.g. 4 hours). […] For comparison, C2F5C(O)CF(CF3)2 (a fluoroketone cover gas marketed by Minnesota Mining and Manufacturing Co. of St. Paul, Minn., under the tradename Novec™) has a 4-hour LC-50 of about 100,000.

The conditions of data set [7]: background statement in words; cited from earlier work.
Setting [8] is: 1.5 Vol. % of F-Source in Air, about 700° C.
[9] abbreviates: 4.5 Vol. % of F-Source in Air, about 700° C.

Like-named read-outs stand apart in the source and are kept apart here.

As usually defined, the NOAEL is the highest dose or exposure tested at which no adverse effect was seen. Regarding `O=C(C(F)(F)C(F)(F)F)C(F)(C(F)(F)F)C(F)(F)F` [C2F5C(O)CF(CF3)2], the “4-hour LC-50” value in data set [1] is reported as “about 100,000 ppm”. In data set [2], the NOAEL is on record as 10 vol. %. For the same molecule, in data set [3] (Table A), the “Boiling Point (° C.)” value is 49 °C.
For `FC(F)(F)C(F)(F)F` [C2F6], the “Boiling Point (° C.)” value in data set [3] (Table A) is −78 °C.
As to `O=C=O` [CO2, carbon dioxide], the “Boiling Point (° C.)” value in data set [3] was −78 °C.
Take `FCC(F)(F)F` [HFC-134a, 1,1,1,2-tetrafluoroethane]: the “Quality of Mg Protection” value in data set [4] (0.10 Vol. % of F-Source in Air, about 700° C.) is reported as “most brown specks, protected in general”; in data set [4] (0.60 Vol. % of F-Source in Air, about 700° C.) it was “white coating with no brown spots”; in data set [4] (setting [8]), “white coating; pieces not stuck together”; in data set [4] (setting [9]), “white coating; pieces not stuck together”. Besides, the “relative performance as cover gas” value in data set [4] was “performing better than SF6”. In addition, the “performance as cover gas” value in data set [4] is reported as “performed well”. The “Boiling Point (° C.)” value in data set [3] (Table A) was −26 °C.
Take `CC(F)F` [HFC-152a, difluoroethane]: the “Boiling Point (° C.)” value in data set [3] (Table A) was −25 °C.
On the same count and under the same terms, for `C=C(Cl)C(F)(F)F` [HFCO-1233xf, 1,1,1-trifluoro-2-chloro-propene] the value was “+12 °C”.
With `FC(F)=CC(F)(F)F` [HFO-1225zc, CF3CH═CF2], in data set [5], the “relative toxicity between isomers” value was “much more toxic”.
On to `C=C(F)C(F)(F)F` [HFO-1234yf, 1,1,1,2-tetrafluoropropene], for which the “4-hour LC-50” value in data set [6] is given as “at least 200,000 ppm”. Besides, in data set [3] (Table A), the “Boiling Point (° C.)” value was −30 °C.
For `FC=CC(F)(F)F` [HFO-1234ze, 1,1,1,3-tetrafluoropropene], in data set [6], the “4-hour LC-50” value is listed as “at least 100,000 ppm”.
Consider `FN(F)F` [NF3, nitrogen trifluoride], for which the “toxicity (known)” value in data set [7] is given as “toxic and/or hazardous”. For the same molecule, the “Boiling Point (° C.)” value in data set [3] (Table A) was −121 °C.
Consider `FS(F)(F)(F)(F)F` [SF6, sulfurhexafluoride], for which the “toxicity (known)” value in data set [7] is on record as “non-toxic”. Further, the “Quality of Mg Protection” value in data set [4] (0.11 Vol. % of F-Source in Air, about 700° C.) was “failure; Mg ignited”; in data set [4] (0.20 Vol. % of F-Source in Air, about 700° C.), “several brownish regions, very little luster,”; in data set [4] (0.43 Vol. % of F-Source in Air, about 700° C.) it was “coating less white; brownish regions;”; in data set [4] (setting [8]) it was “white coating; pieces not stuck together”; in data set [4] (setting [9]), “white coating; pieces not stuck together”. The “performance as cover gas” value in data set [4] was “performed well”. Besides, the “Boiling Point (° C.)” value in data set [3] (Table A) is −82 °C.
On to `O=S(=O)(F)F` [SO2F2, sulfuryl fluoride], for which, in data set [7], the “toxicity (known)” value is recorded as “toxic and/or hazardous”. Besides, the “Boiling Point (° C.)” value in data set [3] (Table A) was −55 °C.
On to `FB(F)F` [boron trifluoride (BF3), boron trifluoride], for which the “toxicity (known)” value in data set [7] was “very toxic”.
Regarding `FC(F)(F)/C=C\Cl` [cis-HFCO-1233zd, cis-1,1,1-trifluoro-3-chloro-propene], the “Boiling Point (° C.)” value in data set [3] (Table A) was “+19 °C”.
In the case of `F/C=C(\F)C(F)(F)F` [cis-HFO-1225ye, cis-1,1,1,2,3-pentafluoropropene], the “relative toxicity between isomers” value in data set [5] is “relatively low degree of toxicity”.
`F/C=C(\F)C(F)F` [cis-HFO-1234ye]: in data set [3], the “Boiling Point (° C.)” value was “+2 °C”.
The molecule `FC=CC(F)(F)F` [cis-HFO-1234ze, 1,1,1,3-tetrafluoropropene] came in with a normal boiling point in data set [3] of 9 °C.
Turning to `O=NF` [nitrosyl fluoride], in data set [7], the “toxicity (known)” value is recorded as “toxic and/or hazardous”.
Turning to `FC(F)(F)/C=C/Cl` [trans-HFCO-1233zd, trans-1,1,1-trifluoro-3-chloro-propene], the “Boiling Point (° C.)” value in data set [3] (Table A) was “+19 °C”.
In the case of `F/C=C/C(F)(F)F` [trans-HFO-1234ze, trans-1,3,3,3-tetrafluoropropene], the “Quality of Mg Protection” value is listed as “a few brown specks, well protected in general” in data set [4] (0.09 Vol. % of F-Source in Air, about 700° C.); “white with dark spots, no pieces stuck together” in data set [4] (0.26 Vol. % of F-Source in Air, about 700° C.); “white coating with no brown spots” in data set [4] (0.46 Vol. % of F-Source in Air, about 700° C.); “white coating; pieces not stuck together” in data set [4] (setting [8]); “white coating; pieces not stuck together” in data set [4] (setting [9]). Further, the “protection of magnesium (visual inspection)” value in data set [4] (Example 1: about 4.5% by volume in air, about 700° C.) is given as “well protected”; in data set [4] (Example 2: about 1.5% by volume in air), “well protected”; in data set [4] (Example 3: about 0.5% by volume in air), “well protected”; in data set [4] (Example 4: about 0.2% by volume in air), “well protected”; in data set [4] (Example 5: about 0.1% by volume in air) it was “protected in general”. Besides, the “relative performance as cover gas” value in data set [4] was “performing better than HFC-134a”. Besides, the “performance as cover gas” value in data set [4] is recorded as “performed well”. Also, the “Boiling Point (° C.)” value in data set [3] (Table A) is −18.4 °C. Moreover, the normal boiling point in data set [3] was −18.4 °C. Also, the “relative toxicity between isomers” value in data set [5] was “less toxic than the cis-isomer”.
With methoxy-nonafluorobutane [HFE-7100], the “Boiling Point (° C.)” value in data set [3] (Table A) is 61 °C.
